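In this assay, cells in 96-well plates receive the compound at five concentrations for 48 hours. Endpoints are linearly interpolated between the surrounding concentrations. GI50 = concentration required for 50% inhibition of growth. Definition used: TGI = concentration required for complete inhibition of growth.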
Legend:
Experiment in all cases: growth of human tumour cells (NCI), 48 h
OVCAR-3 ovarian = system: OVCAR-3 ovarian
MOLT-4 leukemia = system: MOLT-4 leukemia
MDA-MB-435 = system: MDA-MB-435
MALME-3M melanoma = system: MALME-3M melanoma
IGROV1 ovarian = system: IGROV1 ovarian
HCC-2998 colon = system: HCC-2998 colon
UACC-257 melanoma = system: UACC-257 melanoma
COLO 205 colon = system: COLO 205 colon
BT-549 breast = system: BT-549 breast
U251 CNS = system: U251 CNS
SK-OV-3 ovarian = system: SK-OV-3 ovarian
RXF 393 renal = system: RXF 393 renal
ACHN renal = system: ACHN renal
NCI/ADR-RES ovarian = system: NCI/ADR-RES ovarian
EKVX NSCLC = system: EKVX NSCLC
TK-10 renal = system: TK-10 renal
PC-3 prostate = system: PC-3 prostate
HL-60(TB) leukemia = system: HL-60(TB) leukemia
HCT-116 colon = system: HCT-116 colon
HS 578T breast = system: HS 578T breast
A549 NSCLC = system: A549 NSCLC
DU-145 prostate = system: DU-145 prostate
786-0 renal = system: 786-0 renal
HCT-15 colon = system: HCT-15 colon
RPMI-8226 leukemia = system: RPMI-8226 leukemia
K-562 leukemia = system: K-562 leukemia
SF-539 CNS = system: SF-539 CNS
SW-620 colon = system: SW-620 colon
SF-295 CNS = system: SF-295 CNS
SR leukemia = system: SR leukemia
NCI-H522 lung = system: NCI-H522 lung
SF-268 CNS = system: SF-268 CNS
SN12C renal = system: SN12C renal
SK-MEL-5 melanoma = system: SK-MEL-5 melanoma
KM12 colon = system: KM12 colon
HOP-92 NSCLC = system: HOP-92 NSCLC
SK-MEL-28 melanoma = system: SK-MEL-28 melanoma
UO-31 renal = system: UO-31 renal
CAKI-1 renal = system: CAKI-1 renal
NCI-H226 lung = system: NCI-H226 lung
M14 melanoma = system: M14 melanoma
SNB-19 CNS = system: SNB-19 CNS
SNB-75 CNS = system: SNB-75 CNS
OVCAR-5 ovarian = system: OVCAR-5 ovarian
T-47D breast = system: T-47D breast
SK-MEL-2 melanoma = system: SK-MEL-2 melanoma
MDA-MB-231 breast = system: MDA-MB-231 breast
HT29 colon = system: HT29 colon
LOX IMVI melanoma = system: LOX IMVI melanoma
NCI-H23 lung = system: NCI-H23 lung
NCI-H460 lung = system: NCI-H460 lung
MDA-MB-468 breast = system: MDA-MB-468 breast
CCRF-CEM leukemia = system: CCRF-CEM leukemia
OVCAR-8 ovarian = system: OVCAR-8 ovarian
OVCAR-4 ovarian = system: OVCAR-4 ovarian
HOP-62 NSCLC = system: HOP-62 NSCLC
A498 renal = system: A498 renal
MCF7 breast = system: MCF7 breast
UACC-62 melanoma = system: UACC-62 melanoma

Cc1ccc(C(=O)NCCCNc2nc(Nc3ccc(N4CCN(C)CC4)cc3)nc3ccsc23)cc1
GI50 (OVCAR-3 ovarian): 3.08 µM
TGI (OVCAR-3 ovarian): 10.9 µM
GI50 (MOLT-4 leukemia): 1.8 µM
TGI (MOLT-4 leukemia): 4.89 µM
GI50 (MDA-MB-435): 4.31 µM
TGI (MDA-MB-435): 15.5 µM
GI50 (MALME-3M melanoma): 1.79 µM
TGI (MALME-3M melanoma): 3.27 µM
GI50 (IGROV1 ovarian): 4.4 µM
TGI (IGROV1 ovarian): 17 µM
GI50 (HCC-2998 colon): 3.44 µM
TGI (HCC-2998 colon): 9.5 µM
GI50 (UACC-257 melanoma): 2.2 µM
TGI (UACC-257 melanoma): 6.2 µM
GI50 (COLO 205 colon): 2.35 µM
TGI (COLO 205 colon): 5.43 µM
GI50 (BT-549 breast): 2.46 µM
TGI (BT-549 breast): 7.15 µM
GI50 (U251 CNS): 2.78 µM
TGI (U251 CNS): 11.1 µM
GI50 (SK-OV-3 ovarian): 10.8 µM
TGI (SK-OV-3 ovarian): 24 µM
GI50 (RXF 393 renal): 1.47 µM
TGI (RXF 393 renal): 3.71 µM
GI50 (ACHN renal): 3.99 µM
TGI (ACHN renal): 15 µM
GI50 (NCI/ADR-RES ovarian): 3.11 µM
TGI (NCI/ADR-RES ovarian): 11.4 µM
GI50 (EKVX NSCLC): 10.2 µM
TGI (EKVX NSCLC): 22.3 µM
GI50 (TK-10 renal): 3.14 µM
TGI (TK-10 renal): 9.36 µM
GI50 (PC-3 prostate): 3.33 µM
TGI (PC-3 prostate): 14.8 µM
GI50 (HL-60(TB) leukemia): 1.99 µM
TGI (HL-60(TB) leukemia): 4.52 µM
GI50 (HCT-116 colon): 2.62 µM
TGI (HCT-116 colon): 10.2 µM
GI50 (HS 578T breast): 2.55 µM
TGI (HS 578T breast): 18.3 µM
GI50 (A549 NSCLC): 3.99 µM
TGI (A549 NSCLC): 16.3 µM
GI50 (DU-145 prostate): 5.89 µM
TGI (DU-145 prostate): 19.2 µM
GI50 (786-0 renal): 2.02 µM
TGI (786-0 renal): 6.3 µM
GI50 (HCT-15 colon): 2.54 µM
TGI (HCT-15 colon): 11.2 µM
GI50 (RPMI-8226 leukemia): 2.02 µM
TGI (RPMI-8226 leukemia): 6.4 µM
GI50 (K-562 leukemia): 1.74 µM
TGI (K-562 leukemia): 18.4 µM
GI50 (SF-539 CNS): 1.73 µM
TGI (SF-539 CNS): 3.42 µM
GI50 (SW-620 colon): 2.63 µM
TGI (SW-620 colon): 8 µM
GI50 (SF-295 CNS): 2.68 µM
TGI (SF-295 CNS): 7.7 µM
GI50 (SR leukemia): 1.69 µM
TGI (SR leukemia): 4.71 µM
GI50 (NCI-H522 lung): 2.21 µM
TGI (NCI-H522 lung): 5.86 µM
GI50 (SF-268 CNS): 2.46 µM
TGI (SF-268 CNS): 17.9 µM
GI50 (SN12C renal): 7.19 µM
TGI (SN12C renal): 20.7 µM
GI50 (SK-MEL-5 melanoma): 1.84 µM
TGI (SK-MEL-5 melanoma): 4.08 µM
GI50 (KM12 colon): 4.02 µM
TGI (KM12 colon): 15.8 µM
GI50 (HOP-92 NSCLC): 2.23 µM
TGI (HOP-92 NSCLC): 10.4 µM
GI50 (SK-MEL-28 melanoma): 2.18 µM
TGI (SK-MEL-28 melanoma): 4.64 µM
GI50 (UO-31 renal): 3.57 µM
TGI (UO-31 renal): 15.3 µM
GI50 (CAKI-1 renal): 3.3 µM
TGI (CAKI-1 renal): 14.1 µM
GI50 (NCI-H226 lung): 4.79 µM
TGI (NCI-H226 lung): 19.4 µM
GI50 (M14 melanoma): 2.14 µM
TGI (M14 melanoma): 4.77 µM
GI50 (SNB-19 CNS): 10.2 µM
TGI (SNB-19 CNS): 22.2 µM
GI50 (SNB-75 CNS): 1.91 µM
TGI (SNB-75 CNS): 12.1 µM
GI50 (OVCAR-5 ovarian): 11 µM
TGI (OVCAR-5 ovarian): 25.5 µM
GI50 (T-47D breast): 2.25 µM
TGI (T-47D breast): 7.62 µM
GI50 (SK-MEL-2 melanoma): 4.33 µM
TGI (SK-MEL-2 melanoma): 16.5 µM
GI50 (MDA-MB-231 breast): 3.17 µM
TGI (MDA-MB-231 breast): 10.7 µM
GI50 (HT29 colon): 2.06 µM
TGI (HT29 colon): 5.96 µM
GI50 (LOX IMVI melanoma): 1.71 µM
TGI (LOX IMVI melanoma): 3.86 µM
GI50 (NCI-H23 lung): 5.59 µM
TGI (NCI-H23 lung): 20.5 µM
GI50 (NCI-H460 lung): 3.75 µM
TGI (NCI-H460 lung): 14 µM
GI50 (MDA-MB-468 breast): 1.3 µM
TGI (MDA-MB-468 breast): 4.45 µM
GI50 (CCRF-CEM leukemia): 1.87 µM
TGI (CCRF-CEM leukemia): > 100 µM
GI50 (OVCAR-8 ovarian): 3 µM
TGI (OVCAR-8 ovarian): 11.7 µM
GI50 (OVCAR-4 ovarian): 3.45 µM
TGI (OVCAR-4 ovarian): 15 µM
GI50 (HOP-62 NSCLC): 10.3 µM
TGI (HOP-62 NSCLC): 23.4 µM
GI50 (A498 renal): 12.3 µM
TGI (A498 renal): 24.9 µM
GI50 (MCF7 breast): 3.22 µM
TGI (MCF7 breast): 11.4 µM
GI50 (UACC-62 melanoma): 1.98 µM
TGI (UACC-62 melanoma): 4.21 µM

Reference: PubChem BioAssay (NCI)
